{
  "source": "patent US20260216238A1",
  "about": "“TETRATHIOMOLYBDIC ACID FOR USE IN TREATING COPPER METABOLISM-ASSOCIATED DISEASES OR DISORDERS (WILSON DISEASE)” (Alexion Pharmaceuticals, Inc., priority 2023, published 2026)",
  "system": "patients with Wilson disease (WD)",
  "test": "UWDRS Part III total score, functional subscale and individual items (neurological examination)",
  "type": "in vivo, human",
  "experimental": "The UWDRS scoring system was developed specifically for the motor and movement disorders associated with chronic copper neurotoxicity in WD. Some individual items/subscales of the UWDRS Part III (arising from a chair, gait, handwriting, and speech) in addition to the UWDRS Parts I, II, and III overall, were assessed to further define the range of burdensome signs and symptoms of WD, so as to further understand the assessment of treatment effects on patients with WD. The UWDRS scores for consciousness (Part I) and abnormal neurologic examination findings (Part III) will be determined by a trained neurologist rater who is blinded to study treatment randomization. These scores were used to provide a rigorous dataset for evaluating changes from baseline.\nUnified Wilson Disease Rating Scale (Parts I, II, and III): The UWDRS is a clinical rating scale designed to evaluate the neurological manifestations of WD that generally can be divided into 3 movement disorder syndromes: dystonic, ataxic, and Parkinsonian syndrome. The UWDRS comprises 3 parts: UWDRS Part I (level of consciousness, item 1), UWDRS Part II (a patient-reported review of daily activity items [disability], items 2 to 11), and UWDRS Part III (a detailed neurological examination, items 12 to 34).\nThe UWDRS Part I and Part III were assessed by a neurologist who is blinded to the treatment randomization, while UWDRS Part II may be reported to a non-blinded member of the study team by the patient, family member, or caregiver. The UWDRS has not been formally evaluated in adolescents. However, the components of Part I (level of consciousness), Part II (patient or caregiver-reported disability) and Part III (neurologic examination findings) were not fundamentally different between adults and adolescents. Patients aged 12 years and older were expected to be able to comply with UWDRS assessments.\nPooled results from all such participants will be integrated together into one timeline to allow analyses of changes in UWDRS, long-term copper control, and long-term safety laboratory data.\nEndpoints (directly measured non-ceruloplasmin-bound copper [dNCC], UWDRS III (rater blinded) total and individual item scores, Clinical Global Impression-Improvement [CGI-I]) were evaluated at baseline (BL) and Week 48 (W48). Normalization (score decrease to 0), improvement (≥1 point decrease), stability (no change), or worsening (≥1 point increase) of total and individual UWDRS III item scores were evaluated at W48.",
  "key": {"[1]": {"conditions": "Week 144, Study 301 TTM long term set"}, "[2]": {"conditions": "difference of changes Wk 48 - BL"}},
  "data": [
    {"substance": "bis-choline tetrathiomolybdate [TTM]", "values": [
      {"measurement": "UWDRS Part III-handwriting (0-4) change from baseline, Mean", "setting": "[1]", "value": "−0.5"},
      {"measurement": "UWDRS Part III-speech (0-4) change from baseline, LSM", "setting": "[1]", "value": "−0.3"},
      {"measurement": "UWDRS Part III-speech (0-4) change from baseline, Mean", "setting": "[1]", "value": "−0.2"},
      {"measurement": "UWDRS symptom: Arising from chair", "setting": "Wk 48", "value": 86},
      {"measurement": "UWDRS symptom: Arm and hand Dystonia", "setting": "Wk 48", "value": 67},
      {"measurement": "UWDRS symptom: Cervical Dystonia", "setting": "Wk 48", "value": 82},
      {"measurement": "UWDRS symptom: Chorea", "setting": "Wk 48", "value": 91},
      {"measurement": "UWDRS symptom: Facial Expression", "setting": "Wk 48", "value": 58},
      {"measurement": "UWDRS symptom: Finger Taps", "setting": "Wk 48", "value": 59},
      {"measurement": "UWDRS symptom: Finger to Nose", "setting": "Wk 48", "value": 76},
      {"measurement": "UWDRS symptom: Gait", "setting": "Wk 48", "value": 63},
      {"measurement": "UWDRS symptom: Handwriting", "setting": "Wk 48", "value": 71},
      {"measurement": "UWDRS symptom: Head Tremor", "setting": "Wk 48", "value": 89},
      {"measurement": "UWDRS symptom: Involuntary Crying", "setting": "Wk 48", "value": 99},
      {"measurement": "UWDRS symptom: Jaw Tremor", "setting": "Wk 48", "value": 99},
      {"measurement": "UWDRS symptom: Leg Ability", "setting": "Wk 48", "value": 66},
      {"measurement": "UWDRS symptom: Oculomotor", "setting": "Wk 48", "value": 87},
      {"measurement": "UWDRS symptom: Postural Arm Tremor", "setting": "Wk 48", "value": 58},
      {"measurement": "UWDRS symptom: Postural Leg Tremor", "setting": "Wk 48", "value": 73},
      {"measurement": "UWDRS symptom: Posture", "setting": "Wk 48", "value": 71},
      {"measurement": "UWDRS symptom: Pyramidal Signs", "setting": "Wk 48", "value": 87},
      {"measurement": "UWDRS symptom: RAM of Hands", "setting": "Wk 48", "value": 62},
      {"measurement": "UWDRS symptom: Rigidity", "setting": "Wk 48", "value": 72},
      {"measurement": "UWDRS symptom: Speech", "setting": "Wk 48", "value": 51},
      {"measurement": "UWDRS symptom: Stereotyped Actions", "setting": "Wk 48", "value": 89},
      {"measurement": "UWDRS symptom: Tremor at rest", "setting": "Wk 48", "value": 76},
      {"measurement": "UWDRS symptom: Wing-beating tremor", "setting": "Wk 48", "value": 67},
      {"measurement": "UWDRS symptom: Arising from chair, Change (Wk 48 - BL)", "setting": "Wk 48 - BL", "value": 1},
      {"measurement": "UWDRS symptom: Arm and hand Dystonia, Change (Wk 48 - BL)", "setting": "Wk 48 - BL", "value": 3},
      {"measurement": "UWDRS symptom: Cervical Dystonia, Change (Wk 48 - BL)", "setting": "Wk 48 - BL", "value": 8},
      {"measurement": "UWDRS symptom: Chorea, Change (Wk 48 - BL)", "setting": "Wk 48 - BL", "value": 1},
      {"measurement": "UWDRS symptom: Facial Expression, Change (Wk 48 - BL)", "setting": "Wk 48 - BL", "value": 1},
      {"measurement": "UWDRS symptom: Finger Taps, Change (Wk 48 - BL)", "setting": "Wk 48 - BL", "value": 15},
      {"measurement": "UWDRS symptom: Finger to Nose, Change (Wk 48 - BL)", "setting": "Wk 48 - BL", "value": 9},
      {"measurement": "UWDRS symptom: Gait, Change (Wk 48 - BL)", "setting": "Wk 48 - BL", "value": 4},
      {"measurement": "UWDRS symptom: Handwriting, Change (Wk 48 - BL)", "setting": "Wk 48 - BL", "value": 16},
      {"measurement": "UWDRS symptom: Head Tremor, Change (Wk 48 - BL)", "setting": "Wk 48 - BL", "value": 5},
      {"measurement": "UWDRS symptom: Involuntary Crying, Change (Wk 48 - BL)", "setting": "Wk 48 - BL", "value": 0},
      {"measurement": "UWDRS symptom: Jaw Tremor, Change (Wk 48 - BL)", "setting": "Wk 48 - BL", "value": 0},
      {"measurement": "UWDRS symptom: Leg Ability, Change (Wk 48 - BL)", "setting": "Wk 48 - BL", "value": 4},
      {"measurement": "UWDRS symptom: Oculomotor, Change (Wk 48 - BL)", "setting": "Wk 48 - BL", "value": "−2"},
      {"measurement": "UWDRS symptom: Postural Arm Tremor, Change (Wk 48 - BL)", "setting": "Wk 48 - BL", "value": 9},
      {"measurement": "UWDRS symptom: Postural Leg Tremor, Change (Wk 48 - BL)", "setting": "Wk 48 - BL", "value": 5},
      {"measurement": "UWDRS symptom: Posture, Change (Wk 48 - BL)", "setting": "Wk 48 - BL", "value": 4},
      {"measurement": "UWDRS symptom: Pyramidal Signs, Change (Wk 48 - BL)", "setting": "Wk 48 - BL", "value": "−2"},
      {"measurement": "UWDRS symptom: RAM of Hands, Change (Wk 48 - BL)", "setting": "Wk 48 - BL", "value": 14},
      {"measurement": "UWDRS symptom: Rigidity, Change (Wk 48 - BL)", "setting": "Wk 48 - BL", "value": 14},
      {"measurement": "UWDRS symptom: Speech, Change (Wk 48 - BL)", "setting": "Wk 48 - BL", "value": 7},
      {"measurement": "UWDRS symptom: Stereotyped Actions, Change (Wk 48 - BL)", "setting": "Wk 48 - BL", "value": "−4"},
      {"measurement": "UWDRS symptom: Tremor at rest, Change (Wk 48 - BL)", "setting": "Wk 48 - BL", "value": 1},
      {"measurement": "UWDRS symptom: Wing-beating tremor, Change (Wk 48 - BL)", "setting": "Wk 48 - BL", "value": 3},
      {"measurement": "UWDRS symptom: Arising from chair, Difference (TTM − SoC)", "setting": "[2]", "value": 4},
      {"measurement": "UWDRS symptom: Arm and hand Dystonia, Difference (TTM − SoC)", "setting": "[2]", "value": 3},
      {"measurement": "UWDRS symptom: Cervical Dystonia, Difference (TTM − SoC)", "setting": "[2]", "value": 5},
      {"measurement": "UWDRS symptom: Chorea, Difference (TTM − SoC)", "setting": "[2]", "value": 6},
      {"measurement": "UWDRS symptom: Facial Expression, Difference (TTM − SoC)", "setting": "[2]", "value": 4},
      {"measurement": "UWDRS symptom: Finger Taps, Difference (TTM − SoC)", "setting": "[2]", "value": 20},
      {"measurement": "UWDRS symptom: Finger to Nose, Difference (TTM − SoC)", "setting": "[2]", "value": 6},
      {"measurement": "UWDRS symptom: Gait, Difference (TTM − SoC)", "setting": "[2]", "value": 2},
      {"measurement": "UWDRS symptom: Handwriting, Difference (TTM − SoC)", "setting": "[2]", "value": 13},
      {"measurement": "UWDRS symptom: Head Tremor, Difference (TTM − SoC)", "setting": "[2]", "value": 9},
      {"measurement": "UWDRS symptom: Involuntary Crying, Difference (TTM − SoC)", "setting": "[2]", "value": 3},
      {"measurement": "UWDRS symptom: Jaw Tremor, Difference (TTM − SoC)", "setting": "[2]", "value": 0},
      {"measurement": "UWDRS symptom: Leg Ability, Difference (TTM − SoC)", "setting": "[2]", "value": 11},
      {"measurement": "UWDRS symptom: Oculomotor, Difference (TTM − SoC)", "setting": "[2]", "value": 9},
      {"measurement": "UWDRS symptom: Postural Arm Tremor, Difference (TTM − SoC)", "setting": "[2]", "value": 8},
      {"measurement": "UWDRS symptom: Postural Leg Tremor, Difference (TTM − SoC)", "setting": "[2]", "value": 9},
      {"measurement": "UWDRS symptom: Posture, Difference (TTM − SoC)", "setting": "[2]", "value": 1},
      {"measurement": "UWDRS symptom: Pyramidal Signs, Difference (TTM − SoC)", "setting": "[2]", "value": 4},
      {"measurement": "UWDRS symptom: RAM of Hands, Difference (TTM − SoC)", "setting": "[2]", "value": 31},
      {"measurement": "UWDRS symptom: Rigidity, Difference (TTM − SoC)", "setting": "[2]", "value": 5},
      {"measurement": "UWDRS symptom: Speech, Difference (TTM − SoC)", "setting": "[2]", "value": 0},
      {"measurement": "UWDRS symptom: Stereotyped Actions, Difference (TTM − SoC)", "setting": "[2]", "value": 1},
      {"measurement": "UWDRS symptom: Tremor at rest, Difference (TTM − SoC)", "setting": "[2]", "value": 4},
      {"measurement": "UWDRS symptom: Wing-beating tremor, Difference (TTM − SoC)", "setting": "[2]", "value": 9}
    ]}
  ]
}
